From US20240209001A1, “HETEROCYCLIC DERIVATIVES AS JANUS KINASE INHIBITORS” (CHIESI FARMACEUTICI S.P. A., priority 2021, published 2024)

Columns and labels:
JAK 1 = JAK 1 (Homo sapiens (Human), UniProt P23458); assay: Biochemical potency on JAK1, TR-FRET LANCE Ultra kinase assay (compounds 1-92); settings: ATP at Km, read-out: JAK1 inhibitory activity (pIC50 class) (converted)
Experimental: (§1) Biochemical Potency on JAK1, JAK2, JAK3 and Tyk2 Assay Principle The objective of this study was to assess the capability of compounds to inhibit all 4 JAK isoforms activity in a cell-free environment. Assay for JAK 1, JAK 2, JAK 3 and TYK2 were performed by Time-resolved fluorescence resonance energy transfer (TR-FRET) technology. It consists in the interaction of two labelled binding partners detected by the energy transfer from an excited donor to an acceptor dye and measurement of light emission by the acceptor dye. LANCE Ultra kinase assay was used. In presence of JAK 1, JAK 2, JAK 3 and TYK2 kinases and ATP (corresponding to Km), the ULight peptide substrate (LANCE Ulight-JAK-1 ([…]) Peptide, Perkin Elmer, TRF0121) is phosphorylated. It is then captured by Eu-anti-phospho-substrate antibody (LANCE Eu-W1024 Anti-phosphotyrosine (PT66), Perkin Elmer, AD0069), which bring the Eu-chelate donor and ULight acceptor dyes into close proximity. Upon excitation at 320 nm, the Eu-chelate transfers its energy to the ULight dye, resulting in a fluorescent light emission at 665 nm. Compound Testing Serial dilutions of compounds in pure DMSO are prepared from 10 mM DMSO stock solutions. Compounds were tested in 384-well plate for 11 consecutive 5-fold dilutions starting from 20 μM highest concentration (20 μM-[…]). 200 nL of compound were transferred from mother plate to test plate by using Mosquito (TTP labtech). Assay was performed in 384-well Perkin Elmer test plate in 20 μL assay volume (kinase reaction) and 40 μL total volume (stopping reagent and antibody detection reagents). In 10 μL of substrate solution (peptide+ATP) 30/50/20/10 nM of peptide and 20/0.7/0.2/12 μM of ATP were added for JAK 1, JAK 2, JAK 3 and TYK2 respectively. 10 μL of enzyme solution was added to kinase reaction at these concentrations: 0.15/0.083/0.025/0.144 ng/μL of JAK 1, JAK 2, JAK 3 and TYK2 respectively. After shaking and 1.5 h of incubation at r.t., 20 μL of Stop (10 μL EDTA) and Detection mixture (10 μL Europium-anti-phospho antibody, final: 0.5 nM) were added. Reading was performed after 1 h of incubation on a EnVision 2104 reader (Perkin Elmer). Calculation of IC50 data, curves and QC analysis was performed by using Excel tool and GraphPadPrism software, v9. Briefly, individual concentration-effect curves are generated by plotting the logarithm of the tested concentration of tested compounds (X) vs. corresponding percent inhibition values (Y) using least squares (ordinary) fit. Best fit IC50 values are calculated using Log(inhibitor) vs. normalized response-Variable slope equation, where Y=100/(1+10^((Log IC50-X)*HillSlope)). QC criteria parameters (Z', S:B, R2, HillSlope) were checked for every IC50 curve. Calculation of IC50 data, curves and QC analysis were made using Excel tools and GraphPadPrism software. QC criteria parameters: Z'≥0.5, Hill Slope range 0.5 to 5, S:B>2.

JAK 2 = JAK 2 (Homo sapiens (Human), UniProt O60674); assay: Biochemical potency on JAK2, TR-FRET LANCE Ultra kinase assay (compounds 1-92); settings: ATP at Km, read-out: JAK2 inhibitory activity (pIC50 class) (converted)
Experimental: as §1

JAK 3 = JAK 3 (Homo sapiens (Human), UniProt P52333); assay: Biochemical potency on JAK3, TR-FRET LANCE Ultra kinase assay (compounds 1-92); settings: ATP at Km, read-out: JAK3 inhibitory activity (pIC50 class) (converted)
Experimental: as §1

TYK2 = TYK2 (Homo sapiens (Human), UniProt P29597); assay: Biochemical potency on Tyk2, TR-FRET LANCE Ultra kinase assay (compounds 1-92); settings: ATP at Km, read-out: Tyk2 inhibitory activity (pIC50 class) (converted)
Experimental: as §1

Chain of TYK2 (P29597 whole entry): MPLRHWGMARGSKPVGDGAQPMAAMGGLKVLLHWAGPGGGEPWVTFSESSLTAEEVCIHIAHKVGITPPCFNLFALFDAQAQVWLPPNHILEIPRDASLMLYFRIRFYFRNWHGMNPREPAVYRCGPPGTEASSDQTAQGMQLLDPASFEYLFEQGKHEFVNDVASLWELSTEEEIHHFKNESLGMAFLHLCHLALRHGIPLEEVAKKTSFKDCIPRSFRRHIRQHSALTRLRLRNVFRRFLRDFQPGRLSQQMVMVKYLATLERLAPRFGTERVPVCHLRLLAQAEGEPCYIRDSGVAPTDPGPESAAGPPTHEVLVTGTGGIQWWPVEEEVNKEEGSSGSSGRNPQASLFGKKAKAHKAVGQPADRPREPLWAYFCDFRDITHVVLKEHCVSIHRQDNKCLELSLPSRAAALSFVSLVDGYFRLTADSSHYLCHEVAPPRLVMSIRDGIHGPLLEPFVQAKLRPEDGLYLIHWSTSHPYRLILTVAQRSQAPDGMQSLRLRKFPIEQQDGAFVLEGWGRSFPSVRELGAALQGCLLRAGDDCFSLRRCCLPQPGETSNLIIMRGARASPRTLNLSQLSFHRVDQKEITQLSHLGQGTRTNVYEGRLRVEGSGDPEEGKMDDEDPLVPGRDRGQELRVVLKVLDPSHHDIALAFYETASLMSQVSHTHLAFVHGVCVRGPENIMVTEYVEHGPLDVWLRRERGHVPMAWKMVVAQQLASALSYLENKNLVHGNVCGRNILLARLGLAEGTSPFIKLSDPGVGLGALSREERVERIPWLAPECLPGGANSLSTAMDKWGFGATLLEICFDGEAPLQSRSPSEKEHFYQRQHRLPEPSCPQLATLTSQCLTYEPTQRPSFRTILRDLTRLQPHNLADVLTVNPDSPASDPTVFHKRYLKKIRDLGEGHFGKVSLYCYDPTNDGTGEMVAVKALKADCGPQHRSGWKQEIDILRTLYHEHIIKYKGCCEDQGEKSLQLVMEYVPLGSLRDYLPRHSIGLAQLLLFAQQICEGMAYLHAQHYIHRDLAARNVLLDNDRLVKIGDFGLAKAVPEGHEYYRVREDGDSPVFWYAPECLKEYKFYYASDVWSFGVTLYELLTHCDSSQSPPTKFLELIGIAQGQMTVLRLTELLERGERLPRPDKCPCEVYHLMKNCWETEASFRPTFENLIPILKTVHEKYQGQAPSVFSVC
Chain of JAK 2 (O60674 whole entry): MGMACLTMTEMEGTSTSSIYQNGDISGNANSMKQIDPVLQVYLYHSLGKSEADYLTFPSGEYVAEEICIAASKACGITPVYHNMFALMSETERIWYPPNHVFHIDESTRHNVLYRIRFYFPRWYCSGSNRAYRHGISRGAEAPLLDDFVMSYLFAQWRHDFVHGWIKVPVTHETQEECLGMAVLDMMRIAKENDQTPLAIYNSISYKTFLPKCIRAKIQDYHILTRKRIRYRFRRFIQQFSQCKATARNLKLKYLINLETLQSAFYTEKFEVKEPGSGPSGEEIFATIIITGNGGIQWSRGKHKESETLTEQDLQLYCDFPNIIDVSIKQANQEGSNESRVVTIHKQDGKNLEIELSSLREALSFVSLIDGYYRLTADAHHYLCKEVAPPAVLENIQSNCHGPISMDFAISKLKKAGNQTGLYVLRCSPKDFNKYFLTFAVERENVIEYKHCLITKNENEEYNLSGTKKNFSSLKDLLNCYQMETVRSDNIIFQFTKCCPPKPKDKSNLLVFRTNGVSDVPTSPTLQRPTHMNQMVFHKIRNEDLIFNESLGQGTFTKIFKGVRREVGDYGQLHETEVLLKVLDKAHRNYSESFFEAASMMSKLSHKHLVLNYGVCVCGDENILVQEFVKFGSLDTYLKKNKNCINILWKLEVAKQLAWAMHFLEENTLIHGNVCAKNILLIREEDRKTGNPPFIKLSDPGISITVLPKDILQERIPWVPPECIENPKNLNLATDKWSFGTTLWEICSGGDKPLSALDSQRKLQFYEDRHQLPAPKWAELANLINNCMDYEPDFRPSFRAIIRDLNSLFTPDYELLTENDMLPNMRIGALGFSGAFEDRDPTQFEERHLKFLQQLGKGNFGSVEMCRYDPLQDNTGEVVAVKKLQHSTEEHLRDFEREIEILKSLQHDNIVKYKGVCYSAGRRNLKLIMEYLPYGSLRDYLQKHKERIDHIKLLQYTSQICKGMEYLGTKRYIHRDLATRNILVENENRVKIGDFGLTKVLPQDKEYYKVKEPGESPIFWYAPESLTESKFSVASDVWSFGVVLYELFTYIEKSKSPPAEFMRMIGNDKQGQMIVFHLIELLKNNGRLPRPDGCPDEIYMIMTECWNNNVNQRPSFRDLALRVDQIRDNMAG
Chain of JAK 1 (P23458 whole entry, canonical isoform): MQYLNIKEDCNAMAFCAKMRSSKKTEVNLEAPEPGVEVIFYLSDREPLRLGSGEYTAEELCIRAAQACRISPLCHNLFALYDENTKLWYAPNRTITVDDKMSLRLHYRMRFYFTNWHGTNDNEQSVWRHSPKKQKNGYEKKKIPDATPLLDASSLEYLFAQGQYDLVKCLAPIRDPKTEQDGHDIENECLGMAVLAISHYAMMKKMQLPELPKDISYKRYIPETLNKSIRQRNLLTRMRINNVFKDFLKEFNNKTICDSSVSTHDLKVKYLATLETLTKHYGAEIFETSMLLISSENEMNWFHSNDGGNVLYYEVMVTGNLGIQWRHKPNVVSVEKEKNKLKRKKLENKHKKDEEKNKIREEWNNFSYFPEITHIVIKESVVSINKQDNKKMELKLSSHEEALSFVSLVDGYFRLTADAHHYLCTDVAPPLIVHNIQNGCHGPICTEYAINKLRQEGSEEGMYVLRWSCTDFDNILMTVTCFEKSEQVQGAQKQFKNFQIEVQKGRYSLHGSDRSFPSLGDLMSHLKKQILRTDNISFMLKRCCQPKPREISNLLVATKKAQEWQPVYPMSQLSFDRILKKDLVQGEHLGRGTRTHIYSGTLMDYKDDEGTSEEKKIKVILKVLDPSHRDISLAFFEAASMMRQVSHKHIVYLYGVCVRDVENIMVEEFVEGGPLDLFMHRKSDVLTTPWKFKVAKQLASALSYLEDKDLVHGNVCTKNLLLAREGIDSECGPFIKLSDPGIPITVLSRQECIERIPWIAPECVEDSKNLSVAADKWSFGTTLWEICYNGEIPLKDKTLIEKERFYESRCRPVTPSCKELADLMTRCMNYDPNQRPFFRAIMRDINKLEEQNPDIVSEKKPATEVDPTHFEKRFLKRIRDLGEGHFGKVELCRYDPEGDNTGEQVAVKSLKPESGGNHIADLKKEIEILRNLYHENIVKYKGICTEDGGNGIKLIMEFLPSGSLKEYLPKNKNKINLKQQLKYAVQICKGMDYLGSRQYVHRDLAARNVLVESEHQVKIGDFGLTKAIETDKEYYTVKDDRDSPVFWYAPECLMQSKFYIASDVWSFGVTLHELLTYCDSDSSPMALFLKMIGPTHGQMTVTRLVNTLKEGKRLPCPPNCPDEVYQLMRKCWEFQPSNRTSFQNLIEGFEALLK
Chain of JAK 3 (P52333 whole entry): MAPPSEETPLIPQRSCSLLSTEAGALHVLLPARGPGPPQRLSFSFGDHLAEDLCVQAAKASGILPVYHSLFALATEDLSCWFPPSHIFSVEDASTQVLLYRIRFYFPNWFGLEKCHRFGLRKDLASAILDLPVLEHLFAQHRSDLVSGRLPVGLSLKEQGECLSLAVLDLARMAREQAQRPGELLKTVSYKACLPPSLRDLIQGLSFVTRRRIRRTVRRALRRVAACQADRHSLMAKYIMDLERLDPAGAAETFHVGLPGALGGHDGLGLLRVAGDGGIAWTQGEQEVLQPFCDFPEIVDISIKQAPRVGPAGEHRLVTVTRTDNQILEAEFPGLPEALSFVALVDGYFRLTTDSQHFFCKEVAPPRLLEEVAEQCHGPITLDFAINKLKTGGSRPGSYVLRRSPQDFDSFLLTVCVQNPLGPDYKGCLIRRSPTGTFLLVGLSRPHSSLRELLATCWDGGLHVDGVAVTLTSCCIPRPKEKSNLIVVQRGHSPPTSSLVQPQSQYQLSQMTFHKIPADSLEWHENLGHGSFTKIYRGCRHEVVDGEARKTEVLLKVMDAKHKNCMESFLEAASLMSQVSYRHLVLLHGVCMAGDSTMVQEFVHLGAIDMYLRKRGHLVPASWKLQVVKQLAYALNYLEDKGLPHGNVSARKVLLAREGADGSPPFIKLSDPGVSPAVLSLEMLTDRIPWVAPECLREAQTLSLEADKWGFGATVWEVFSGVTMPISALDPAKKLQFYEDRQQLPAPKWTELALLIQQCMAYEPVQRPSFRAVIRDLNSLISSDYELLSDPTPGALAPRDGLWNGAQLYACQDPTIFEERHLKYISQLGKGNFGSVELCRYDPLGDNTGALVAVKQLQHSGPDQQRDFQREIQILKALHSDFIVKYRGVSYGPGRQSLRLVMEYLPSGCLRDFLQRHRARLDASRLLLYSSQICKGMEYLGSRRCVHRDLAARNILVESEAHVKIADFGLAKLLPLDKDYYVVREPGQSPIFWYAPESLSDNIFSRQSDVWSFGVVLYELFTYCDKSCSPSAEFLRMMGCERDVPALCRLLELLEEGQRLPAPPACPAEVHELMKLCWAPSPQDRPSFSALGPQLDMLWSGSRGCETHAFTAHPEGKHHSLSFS

Row | SMILES | IC50 (JAK 1) | IC50 (JAK 2) | IC50 (JAK 3) | IC50 (TYK2)
1 | COc1cc(NS(C)(=O)=O)ccc1-n1nc(NC(=O)C2CCN(C)CC2)c2cnc(-c3cnn4cccnc34)cc21 [Example 41, N-(1-(2-methoxy-4-(methylsulfonamido)phenyl)-6-(pyrazolo[1,5-a]pyrimidin-3-yl)-1H-pyrazolo[4,3-c]pyridin-3-yl)-1-methylpiperidine-4-carboxamide] | ≤ 5.01 nM | ≤ 5.01 nM | ≤ 5.01 nM | 5.01 to 50.1 nM
2 | CNc1nn(-c2ccc(CNS(C)(=O)=O)cc2OC)c2cc(-c3cnn4cccnc34)ncc12 [Example 55, N-(3-methoxy-4-(3-(methylamino)-6-(pyrazolo[1,5-a]pyrimidin-3-yl)-1H-pyrazolo[4,3-c]pyridin-1-yl)benzyl)methanesulfonamide] | ≤ 5.01 nM | ≤ 5.01 nM | ≤ 5.01 nM | 5.01 to 50.1 nM
3 | COc1cc(CNS(C)(=O)=O)ccc1-n1nc(C(=O)NCCCN(C)C)c2cnc(-c3cnn4cccnc34)cc21 [Example 59, N-(3-(dimethylamino)propyl)-1-(2-methoxy-4-(methylsulfonamidomethyl)phenyl)-6-(pyrazolo[1,5-a]pyrimidin-3-yl)-1H-pyrazolo[4,3-c]pyridine-3-carboxamide] | ≤ 5.01 nM | 5.01 to 50.1 nM | 5.01 to 50.1 nM | 5.01 to 50.1 nM
4 | CNC(=O)Nc1ccc(-n2nc(C)c3cnc(-c4cnn5cccnc45)cc32)c(OC)c1 [Example 18, 1-(3-methoxy-4-(3-methyl-6-(pyrazolo[1,5-a]pyrimidin-3-yl)-1H-pyrazolo[4,3-c]pyridin-1-yl)phenyl)-3-methylurea] | 5.01 to 50.1 nM | 5.01 to 50.1 nM | 5.01 to 50.1 nM | > 50.1 nM
5 | COc1cc(NS(=O)(=O)C2CC2)cnc1-n1nc(NCCN(C)C)c2cnc(-c3cnn4cccnc34)cc21 [Example 29, N-(6-(3-((2-(dimethylamino)ethyl)amino)-6-(pyrazolo[1,5-a]pyrimidin-3-yl)-1H-pyrazolo[4,3-c]pyridin-1-yl)-5-methoxypyridin-3-yl)cyclopropanesulfonamide] | 5.01 to 50.1 nM | 5.01 to 50.1 nM | 5.01 to 50.1 nM | > 50.1 nM
6 | COc1cc(C#N)ccc1-n1nc(C)c2cnc(-c3cnn4cccnc34)cc21 [Example 15, 3-methoxy-4-(3-methyl-6-(pyrazolo[1,5-a]pyrimidin-3-yl)-1H-pyrazolo[4,3-c]pyridin-1-yl)benzonitrile] | 5.01 to 50.1 nM | 5.01 to 50.1 nM | 5.01 to 50.1 nM | > 50.1 nM
7 | COc1cc(NS(=O)(=O)C2CC2)ccc1-n1nc(NCCCN2CCOCC2)c2cnc(-c3cnn4cccnc34)cc21 [Example 33, N-(3-methoxy-4-(3-((3-morpholinopropyl)amino)-6-(pyrazolo[1,5-a]pyrimidin-3-yl)-1H-pyrazolo[4,3-c]pyridin-1-yl)phenyl)cyclopropanesulfonamide] | 5.01 to 50.1 nM | 5.01 to 50.1 nM | 5.01 to 50.1 nM | 5.01 to 50.1 nM
8 | COc1cc(NS(=O)(=O)C2CCOC2)ccc1-n1nc(C)c2cnc(-c3cnn4cccnc34)cc21 (stereo not drawn) [Example 9, N-(3-methoxy-4-(3-methyl-6-(pyrazolo[1,5-a]pyrimidin-3-yl)-1H-pyrazolo[4,3-c]pyridin-1-yl)phenyl)tetrahydrofuran-3-sulfonamide] | 5.01 to 50.1 nM | ≤ 5.01 nM | 5.01 to 50.1 nM | 5.01 to 50.1 nM
9 | COc1cc(NS(C)(=O)=O)ccc1-n1nc(NCCN(C)CCF)c2cnc(-c3cnn4cccnc34)cc21 [Example 39, N-(4-(3-((2-((2-fluoroethyl)(methyl)amino)ethyl)amino)-6-(pyrazolo[1,5-a]pyrimidin-3-yl)-1H-pyrazolo[4,3-c]pyridin-1-yl)-3-methoxyphenyl)methanesulfonamide] | ≤ 5.01 nM | ≤ 5.01 nM | ≤ 5.01 nM | 5.01 to 50.1 nM
10 | COc1cc(NS(C)(=O)=O)ccc1-n1nc(N(C)CCN2CCOCC2)c2cnc(-c3cnn4cccnc34)cc21 [Example 40, N-(3-methoxy-4-(3-(methyl(2-morpholinoethyl)amino)-6-(pyrazolo[1,5-a]pyrimidin-3-yl)-1H-pyrazolo[4,3-c]pyridin-1-yl)phenyl)methanesulfonamide] | 5.01 to 50.1 nM | 5.01 to 50.1 nM | 5.01 to 50.1 nM | 5.01 to 50.1 nM
11 | COc1cc(NS(=O)(=O)C2CC2)ccc1-n1nc(C)c2cnc(-c3cnn4cccnc34)cc21 [Example 6, N-(3-methoxy-4-(3-methyl-6-(pyrazolo[1,5-a]pyrimidin-3-yl)-1H-pyrazolo[4,3-c]pyridin-1-yl)phenyl)cyclopropanesulfonamide] | ≤ 5.01 nM | ≤ 5.01 nM | ≤ 5.01 nM | 5.01 to 50.1 nM

Further lines, results first:

Row | IC50 (JAK 1) | IC50 (JAK 2) | IC50 (JAK 3) | IC50 (TYK2) | SMILES
12 | ≤ 5.01 nM | ≤ 5.01 nM | ≤ 5.01 nM | ≤ 5.01 nM | COc1cc(CNS(C)(=O)=O)ccc1-n1nc(NCCN2CCOCC2)c2cnc(Nc3ncc[nH]c3=O)cc21 [Example 92, N-(3-methoxy-4-(3-((2-morpholinoethyl)amino)-6-((3-oxo-3,4-dihydropyrazin-2-yl)amino)-1H-pyrazolo[4,3-c]pyridin-1-yl)benzyl)methanesulfonamide]
13 | ≤ 5.01 nM | ≤ 5.01 nM | ≤ 5.01 nM | 5.01 to 50.1 nM | COc1cc(NS(C)(=O)=O)ccc1-n1nc(N)c2cnc(-c3cnn4cccnc34)cc21 [Example 79, N-(4-(3-amino-6-(pyrazolo[1,5-a]pyrimidin-3-yl)-1H-pyrazolo[4,3-c]pyridin-1-yl)-3-methoxyphenyl)methanesulfonamide]
14 | ≤ 5.01 nM | ≤ 5.01 nM | ≤ 5.01 nM | ≤ 5.01 nM | COc1cc(NS(C)(=O)=O)ccc1-n1nc(NCCN2CCOCC2)c2cnc(Nc3ncc[nH]c3=O)cc21 [Example 87, N-(3-methoxy-4-(3-((2-morpholinoethyl)amino)-6-((3-oxo-3,4-dihydropyrazin-2-yl)amino)-1H-pyrazolo[4,3-c]pyridin-1-yl)phenyl)methanesulfonamide]
15 | > 50.1 nM | 5.01 to 50.1 nM | 5.01 to 50.1 nM | > 50.1 nM | COc1cc(CNC(=O)Nc2ccccc2)ccc1-n1nc(C)c2cnc(-c3cnn4cccnc34)cc21 [Example 72, 1-(3-methoxy-4-(3-methyl-6-(pyrazolo[1,5-a]pyrimidin-3-yl)-1H-pyrazolo[4,3-c]pyridin-1-yl)benzyl)-3-phenylurea]
16 | ≤ 5.01 nM | ≤ 5.01 nM | ≤ 5.01 nM | > 50.1 nM | COc1cc(C(C)NS(C)(=O)=O)ccc1-n1nc(C)c2cnc(-c3cnn4cccnc34)cc21 (stereo not drawn) [Example 62, N-(1-(3-methoxy-4-(3-methyl-6-(pyrazolo[1,5-a]pyrimidin-3-yl)-1H-pyrazolo[4,3-c]pyridin-1-yl)phenyl)ethyl)methanesulfonamide]
17 | 5.01 to 50.1 nM | 5.01 to 50.1 nM | 5.01 to 50.1 nM | 5.01 to 50.1 nM | CCCS(=O)(=O)Nc1ccc(-n2nc(NC(=O)CCN3CCN(C)CC3)c3cnc(-c4cnn5cccnc45)cc32)c(OC)c1 [Example 82, N-(1-(2-methoxy-4-(propylsulfonamido)phenyl)-6-(pyrazolo[1,5-a]pyrimidin-3-yl)-1H-pyrazolo[4,3-c]pyridin-3-yl)-3-(4-methylpiperazin-1-yl)propanamide]
18 | ≤ 5.01 nM | ≤ 5.01 nM | ≤ 5.01 nM | 5.01 to 50.1 nM | COc1cc(CNS(=O)(=O)CC#N)ccc1-n1nc(C)c2cnc(-c3cnn4cccnc34)cc21 [Example 68, 1-cyano-N-(3-methoxy-4-(3-methyl-6-(pyrazolo[1,5-a]pyrimidin-3-yl)-1H-pyrazolo[4,3-c]pyridin-1-yl)benzyl)methanesulfonamide]
